Data from the supplement of paper PMC10307832.

Assays:
Assay in all cases: relative viability (nuclei count vs DMSO), 5 days (fraction); higher = more cells survive
[1] = compound: COc1cc2ncn(-c3cc(OCc4ccccc4C(F)(F)F)c(C(N)=O)s3)c2cc1OC + Nc1nc2[nH]cc(CCc3ccc(C(=O)N[C@@H](CCC(=O)O)C(=O)O)cc3)c2c(=O)[nH]1 [Pemetrexed] (partner 0.2 µM)
How it was run: (§1)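 Relative viability is defined as nuclei in treated wells over nuclei in vehicle wells. Duplicate plates were run and medians reported. Lung cancer cell lines in 1536-well plates were dosed by pin tool one day after seeding, with one drug or with a fixed anchor-drug dose plus five library-drug doses (not always all listed) in √10 steps, and nuclei were counted after 5 days.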

[2] = compound: COc1cc2ncn(-c3cc(OCc4ccccc4C(F)(F)F)c(C(N)=O)s3)c2cc1OC + CC(=O)c1c(C)c2cnc(Nc3ccc(N4CCNCC4)cn3)nc2n(C2CCCC2)c1=O [Palbociclib] (partner 0.5 µM)
How it was run: as §1

[3] = compound: COc1cc2ncn(-c3cc(OCc4ccccc4C(F)(F)F)c(C(N)=O)s3)c2cc1OC + Cc1nc(NC(=O)N2CCC[C@H]2C(N)=O)sc1-c1ccnc(C(C)(C)C(F)(F)F)c1 [Alpelisib] (partner 2 µM)
How it was run: as §1

[4] = compound: COc1cc2ncn(-c3cc(OCc4ccccc4C(F)(F)F)c(C(N)=O)s3)c2cc1OC + O=C(c1cc(Cc2n[nH]c(=O)c3ccccc23)ccc1F)N1CCN(C(=O)C2CC2)CC1 [Olaparib] (partner 8 µM)
How it was run: as §1

Cell Line	relative viability ([1]; first compound 0.05 µM)	relative viability ([1]; first compound 0.1581 µM)	relative viability ([1]; first compound 0.5 µM)	relative viability ([1]; first compound 1.581 µM)	relative viability ([1]; first compound 5 µM)	relative viability ([2]; first compound 0.05 µM)	relative viability ([2]; first compound 0.1581 µM)	relative viability ([2]; first compound 0.5 µM)	relative viability ([2]; first compound 1.581 µM)	relative viability ([2]; first compound 5 µM)	relative viability ([3]; first compound 0.05 µM)	relative viability ([3]; first compound 0.1581 µM)	relative viability ([3]; first compound 0.5 µM)	relative viability ([3]; first compound 1.581 µM)	relative viability ([3]; first compound 5 µM)	relative viability ([4]; first compound 0.05 µM)	relative viability ([4]; first compound 0.1581 µM)	relative viability ([4]; first compound 0.5 µM)	relative viability ([4]; first compound 1.581 µM)	relative viability ([4]; first compound 5 µM)
LOU-NH91	0.344	0.357	0.362	0.291	0.264	0.529	0.479	0.517	0.446	0.333	0.705	0.843	0.626	0.447	0.488	0.893	0.89	0.688	0.382	0.273
LU99A	0.204	0.169	0.204	0.154	0.146	0.408	0.386	0.345	0.184	0.145	0.488	0.495	0.36	0.189	0.167	0.241	0.273	0.225	0.152	0.108
NCI-H522	0.965	0.842	0.742	0.812	0.377	0.886	0.866	0.842	1.01	0.401						0.51	0.714	0.621	0.517	0.337
NCI-H596	0.559	0.463	0.454	0.359	0.337						0.496	0.514	0.35	0.29	0.23	0.542	0.692	0.765	0.413	0.306
NCI-H727						0.701	0.716	0.608	0.547	0.628	0.545	0.695	0.41	0.282	0.247	0.676	0.672	0.68	0.489	0.535
NCI-H1299											1.04	0.979	0.788	0.326	0.654	0.962	0.921	0.431	0.223	0.19
NCI-H1563	0.833	0.654	0.707	0.71	0.365						0.953	1.02	0.917	0.745	0.599					
NCI-H1648	0.855	0.805	0.513	0.243	0.219	0.222	0.309	0.234	0.273	0.255						0.74	0.596	0.366	0.242	0.261
NCI-H1650	0.421	0.36	0.333	0.217	0.207	0.295	0.329	0.234	0.146	0.141						0.757	0.659	0.305	0.114	0.204
NCI-H1703											0.3	0.368	0.271	0.142	0.12	0.416	0.616	0.488	0.261	0.066
NCI-H2342	0.773	0.782	0.56	0.518	0.655	0.519	0.509	0.513	0.437	0.422						0.389	0.437	0.407	0.388	0.421
